Where “and” joins values, the source holds several entries; their conditions need not be identical. Identical values can stand only once. Like-named read-outs stand apart in the source and are kept apart here.

One data set has as its system BT112 cells. As to the kind of experiment: Cell viability, patient-derived GBM line BT112. The following applies: Homo sapiens, 72 h.
Data set [1] has as its system PC-9 cells (EGFR exon 19 deletion). As to the kind of experiment: Cell viability assay, PC-9 (CellTiter-Glo). The following applies: Homo sapiens, PC-9; read-out: IC50, cell viability. Type of data set: cell-based. From the text:
CellTier-Glo (Promega) assay kit (https://www.promega.com/resources/protocols/technical-bulletins/0/celltiter-glo-luminescentcell-viability-assay-protocol/) was used here.

The test system of data set [2] is 468 human kinases and disease relevant mutant variants. As to the kind of experiment: Kinase selectivity binding panel (468 kinases). The following applies: 468 kinase panel, 1 μM free base. As to the method:
(§1) Compound 1 and Compound 2 (major metabolite) were evaluated in a panel of 468 human kinases and disease relevant mutant variants. Compound 1 and Compound 2 bound to few non-mutant kinases at <1% of control. […] While there is some variability between Compound 1 and Compound 2, it is clear that both compounds are very effective at binding to a large panel of mutant kinases. […] Binding constant to wild type EGFR was 4.9 nM.

Another data set relates to P-gp, Bcrp. In words: Efflux liability. Type of data set: in vitro ADME. The following applies: Compound 1, own data. From the text: Data obtained in a previously published report on brain penetration of EGFR TKIs in GMB was compared to brain penetrance data described herein (Table 5). […] Each of these drugs, with the exception of vizimpro, appeared to be a substrate of P-gp and Bcrp (efflux transporter proteins).

Data set [3] in a line: Brain and plasma exposure after single oral dose. The data set is classed as in vivo, Sprague Dawley rats. The following applies: own data, oral dosing in rats. An excerpt: Genfitinib concentrations were quantitated by LC-MS/MS from brain and plasma from Group 1 animals.
Another data set has as its target EGFRvIII (Homo sapiens, UniProt P00533, DELINS30-297G). As to the kind of experiment: EGFRvIII phosphorylation in U251-EGFRvIII cells (western blot). The data set is classed as cell-based. More on the design: expressed in transfected cells; host or cells: U251 (human GBM cell line), retroviral transduction. The following applies: 20 hours, read-out: IC50 on EGFRvIII phosphorylation (pEGFRvIII1068). From the text:
Anti-a-Tubulin antibody was purchased from Sigma.
In parallel, the conventional human GBM U251 cell line was used as a surrogate model for both in vitro and in vivo studies. U251 cells were engineered to stably express EGFRvIII (U251-EGFRvIII) via retroviral-mediated gene transfer.
(In general: Immunoblotting shows a protein as a band on a membrane.)

Another data set concerns the target T1, human BCRP (Homo sapiens, UniProt Q9UNQ0).
T1 construct: endogenous in cells; host or cells: Caco-2 cells
As to the kind of experiment: BCRP inhibition (rosuvastatin transport, Caco-2 cells). The data set is classed as in vitro ADME. The following applies: read-out: apparent IC50, rosuvastatin transport via human BCRP (converted). From the text:
Further understanding of DDI risk will await definition of Phase 2 doses and exposures.
(In general: Caco-2 monolayers are a common model of the intestinal barrier.)

A further data set in a line: Respiratory rate. The data set is classed as in vivo. The following applies: dog, PO up to 100 mg/kg.
Data set [4] can be described thus: Brain and plasma exposure after single oral dose. Type of data set: in vivo, Sprague Dawley rats. The following applies: Compound 1 30 mg/kg PO, 30 mg/kg; for concentration at 7 h / Kp at 7 h / concentration at 3 h: Sprague Dawley, rat, po; for Kp at 7 h: read-out: Brain/Plasma (ratios).
A further data set deals with CYP3A4. In words: CYP 1A2, 2B6 and 3A4 induction, human hepatocytes. Type of data set: in vitro ADME. An excerpt: Metabolism, inhibition and induction were not observed with other CYPs. Potential DDI interactions exist with drugs that are inhibitors of CYP3A4-T or those metabolized by CYP3A4/3A5; these DDI risks will be better defined once there are human pharmacokinetics (PK) data.

Data set [5] concerns the target ALK, EGFR and FLT3 mutants (Homo sapiens, UniProt P00533). As to the kind of experiment: Targeted kinase binding constants, mutant kinases (summary). The following applies: read-out: mutant kinase binding (Kd) for several EGFR single and double mutants. Here is the method:
as §1

The target in the next data set is hERG (Homo sapiens, UniProt Q12809). As to the kind of experiment: hERG assay (HEK cells). The data set is classed as cell-based. Here is the method:
Compound 1 and/or Compound 2 (active/major metabolite) were evaluated for off-target activity in a large panel of receptors and ion channels, including a human ether-i-go-go-related gene (hERG) assay. Compound 1 was assessed comprehensively in Good Laboratory Practice (GLP) safety pharmacology studies, including studies of cardiovascular, respiratory and central nervous system function.
For orientation: Block of hERG is tested as a sign of cardiac risk.

Chain of hERG (Q12809 whole entry): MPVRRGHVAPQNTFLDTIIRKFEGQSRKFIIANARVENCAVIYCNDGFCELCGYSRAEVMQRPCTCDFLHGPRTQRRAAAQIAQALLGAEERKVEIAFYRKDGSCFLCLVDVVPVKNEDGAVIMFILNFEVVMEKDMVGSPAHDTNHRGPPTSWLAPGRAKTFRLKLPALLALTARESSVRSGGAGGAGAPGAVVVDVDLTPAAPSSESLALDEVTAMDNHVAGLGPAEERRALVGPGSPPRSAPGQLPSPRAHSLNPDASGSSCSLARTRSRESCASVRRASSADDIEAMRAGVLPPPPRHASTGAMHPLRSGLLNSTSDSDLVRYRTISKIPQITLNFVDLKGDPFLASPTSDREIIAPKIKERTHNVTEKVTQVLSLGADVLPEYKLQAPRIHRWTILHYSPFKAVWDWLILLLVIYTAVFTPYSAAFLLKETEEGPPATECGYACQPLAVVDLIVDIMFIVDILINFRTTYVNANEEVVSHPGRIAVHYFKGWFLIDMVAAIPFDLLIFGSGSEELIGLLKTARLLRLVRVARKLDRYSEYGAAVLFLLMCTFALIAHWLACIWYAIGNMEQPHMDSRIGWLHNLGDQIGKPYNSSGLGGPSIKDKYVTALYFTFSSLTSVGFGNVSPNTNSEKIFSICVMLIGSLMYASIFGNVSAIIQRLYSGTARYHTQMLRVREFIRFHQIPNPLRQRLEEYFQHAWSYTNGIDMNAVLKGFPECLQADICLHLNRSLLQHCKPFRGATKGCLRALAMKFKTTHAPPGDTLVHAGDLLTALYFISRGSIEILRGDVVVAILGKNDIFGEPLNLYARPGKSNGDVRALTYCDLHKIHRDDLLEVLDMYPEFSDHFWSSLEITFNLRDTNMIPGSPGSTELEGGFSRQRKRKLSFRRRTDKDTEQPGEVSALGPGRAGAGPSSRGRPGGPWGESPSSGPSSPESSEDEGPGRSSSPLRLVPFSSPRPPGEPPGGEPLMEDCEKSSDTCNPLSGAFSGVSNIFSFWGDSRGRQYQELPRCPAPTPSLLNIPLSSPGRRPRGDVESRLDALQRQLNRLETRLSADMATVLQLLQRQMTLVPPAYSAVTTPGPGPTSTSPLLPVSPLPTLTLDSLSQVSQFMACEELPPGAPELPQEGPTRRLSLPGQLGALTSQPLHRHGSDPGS
T1 sequence (Q9UNQ0 whole entry): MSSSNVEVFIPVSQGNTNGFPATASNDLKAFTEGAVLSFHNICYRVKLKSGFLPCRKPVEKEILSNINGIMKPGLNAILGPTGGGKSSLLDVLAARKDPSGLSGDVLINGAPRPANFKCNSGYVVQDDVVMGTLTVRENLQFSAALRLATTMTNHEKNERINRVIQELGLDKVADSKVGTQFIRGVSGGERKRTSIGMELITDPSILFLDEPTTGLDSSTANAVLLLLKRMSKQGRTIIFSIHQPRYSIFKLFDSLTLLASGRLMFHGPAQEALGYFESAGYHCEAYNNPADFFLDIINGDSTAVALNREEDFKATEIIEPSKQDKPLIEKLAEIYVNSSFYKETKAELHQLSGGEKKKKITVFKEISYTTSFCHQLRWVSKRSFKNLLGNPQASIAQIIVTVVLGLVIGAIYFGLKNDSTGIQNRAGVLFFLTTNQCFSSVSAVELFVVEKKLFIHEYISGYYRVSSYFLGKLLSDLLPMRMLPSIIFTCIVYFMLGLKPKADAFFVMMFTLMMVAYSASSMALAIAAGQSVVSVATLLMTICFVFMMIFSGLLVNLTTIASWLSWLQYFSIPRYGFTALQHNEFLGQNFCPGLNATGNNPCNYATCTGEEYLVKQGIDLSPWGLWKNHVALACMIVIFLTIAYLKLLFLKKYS
Chain of EGFRvIII (P00533 with tags, fused parts or gaps DELINS30-297G): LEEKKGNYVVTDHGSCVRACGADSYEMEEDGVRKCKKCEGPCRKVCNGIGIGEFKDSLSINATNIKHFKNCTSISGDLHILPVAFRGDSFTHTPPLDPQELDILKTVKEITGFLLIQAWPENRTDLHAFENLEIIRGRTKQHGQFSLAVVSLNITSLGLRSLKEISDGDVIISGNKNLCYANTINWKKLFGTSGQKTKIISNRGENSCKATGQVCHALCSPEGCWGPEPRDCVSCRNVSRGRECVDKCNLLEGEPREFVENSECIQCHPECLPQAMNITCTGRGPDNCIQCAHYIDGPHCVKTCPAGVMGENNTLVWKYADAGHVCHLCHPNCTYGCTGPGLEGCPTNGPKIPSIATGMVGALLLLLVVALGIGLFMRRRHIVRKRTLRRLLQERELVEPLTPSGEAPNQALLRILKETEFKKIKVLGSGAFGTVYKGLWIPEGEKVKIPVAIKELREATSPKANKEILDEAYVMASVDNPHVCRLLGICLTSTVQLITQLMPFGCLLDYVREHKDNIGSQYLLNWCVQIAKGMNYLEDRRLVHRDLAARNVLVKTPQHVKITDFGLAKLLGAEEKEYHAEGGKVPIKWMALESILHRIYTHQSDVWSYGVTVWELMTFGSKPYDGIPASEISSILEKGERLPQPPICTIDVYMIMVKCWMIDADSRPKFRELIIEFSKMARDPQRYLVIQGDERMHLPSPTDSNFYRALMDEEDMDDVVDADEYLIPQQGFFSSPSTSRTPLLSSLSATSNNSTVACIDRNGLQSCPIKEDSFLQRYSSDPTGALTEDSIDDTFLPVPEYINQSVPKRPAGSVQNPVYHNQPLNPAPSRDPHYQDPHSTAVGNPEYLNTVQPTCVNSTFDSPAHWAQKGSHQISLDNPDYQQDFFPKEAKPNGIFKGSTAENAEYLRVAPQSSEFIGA
Chain of ALK, EGFR and FLT3 mutants (P00533 25-1210 limits assumed, change not shown): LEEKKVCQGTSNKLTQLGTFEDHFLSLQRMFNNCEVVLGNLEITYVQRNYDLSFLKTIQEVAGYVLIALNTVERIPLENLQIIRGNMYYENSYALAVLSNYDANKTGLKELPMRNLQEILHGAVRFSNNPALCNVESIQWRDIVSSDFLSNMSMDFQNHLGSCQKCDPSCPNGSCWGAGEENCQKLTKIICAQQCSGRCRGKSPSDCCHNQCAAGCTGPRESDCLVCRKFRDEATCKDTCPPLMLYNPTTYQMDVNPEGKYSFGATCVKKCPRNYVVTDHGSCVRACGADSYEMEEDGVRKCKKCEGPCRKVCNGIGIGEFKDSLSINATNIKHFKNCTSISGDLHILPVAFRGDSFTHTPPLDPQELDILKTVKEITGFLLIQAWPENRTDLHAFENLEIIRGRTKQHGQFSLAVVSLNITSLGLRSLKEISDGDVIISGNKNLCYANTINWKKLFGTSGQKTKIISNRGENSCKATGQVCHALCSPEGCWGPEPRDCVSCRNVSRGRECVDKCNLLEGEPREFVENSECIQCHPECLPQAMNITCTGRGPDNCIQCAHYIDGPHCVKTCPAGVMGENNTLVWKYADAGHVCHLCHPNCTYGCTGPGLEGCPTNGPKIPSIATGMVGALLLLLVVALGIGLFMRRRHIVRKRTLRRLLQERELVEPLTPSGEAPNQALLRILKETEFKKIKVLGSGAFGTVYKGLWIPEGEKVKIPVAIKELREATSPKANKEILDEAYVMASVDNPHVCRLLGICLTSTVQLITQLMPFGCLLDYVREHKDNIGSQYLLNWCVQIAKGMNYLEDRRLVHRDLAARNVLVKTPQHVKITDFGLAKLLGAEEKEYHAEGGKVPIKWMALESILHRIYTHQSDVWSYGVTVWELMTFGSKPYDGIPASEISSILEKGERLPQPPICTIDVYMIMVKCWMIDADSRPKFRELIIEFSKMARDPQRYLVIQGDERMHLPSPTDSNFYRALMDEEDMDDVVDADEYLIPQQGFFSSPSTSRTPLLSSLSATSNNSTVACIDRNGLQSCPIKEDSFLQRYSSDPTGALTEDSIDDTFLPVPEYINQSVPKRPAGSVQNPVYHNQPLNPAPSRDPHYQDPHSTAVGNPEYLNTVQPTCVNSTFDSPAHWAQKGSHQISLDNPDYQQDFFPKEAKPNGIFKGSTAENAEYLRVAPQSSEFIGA
Description for BT112 cells: Primary human glioblastoma lines BT112, BT179 and BT333 were maintained in NeuroCult proliferation medium (human) (StemCell Technologies) with 20 ng/ml EGF, 10 ng/ml FGF and 0.0002% Heparin.
Cells were seeded in 96-well plates at a density of 1,000 cells per well and treated with two-fold serial dilutions of compounds with a starting concentration of 20 μM. Cell viability was assessed after three days of treatment by CellTiter-Glo (Promega). Curve fitting analysis and IC50 value determination were performed using GraphPad Prism 8.

Turning to `C=CC(=O)Nc1cc(Nc2nccc(-n3ccc4cccnc43)n2)c(OC)cc1N(C)CCN(C)C` [Compound 1, N-(5-((4-(1H-pyrrolo[2,3-b]pyridin-1-yl)pyrimidin-2-yl)amino)-2-((2-(dimethylamino)ethyl)(methyl)amino)-4-methoxyphenyl)acrylamide], the IC50 – broadly, the point on the concentration scale where inhibition reaches its midpoint – in the data set on BT112 cells was 2040 nM; in data set [1], 62.8 nM; at EGFRvIII it was 174 nM and 170 nM; at human BCRP it was 3020 nM; against hERG, 1900 nM. In data set [2], the “targeted non-mutant kinases (bound at <1% of control)” value is “MAST1, PAK4, PDGFRB and ULK3”. Further, the “Efflux Liability” value in the data set with P-gp, Bcrp is “Not a substrate”. The “Brain Penetration (% of B/P ratio in preclinical model)” value in [3] is recorded as 2830% (oral). Also, the “effects on respiratory rate” value in “Respiratory rate” was “no adverse effects on respiratory rate”. Moreover, the “Plasma Concentration” value in data set [4] (3 hr, individual animal) is 181 ng/mL and 229 ng/mL and 273 ng/mL; in data set [4] (7 hr, individual animal) it was 265 ng/mL and 197 ng/mL and 275 ng/mL. For the same compound, the “Brain Tissue Concentration” value in data set [4] (7 hr, individual animal) was 8280 ng/g and 5210 ng/g and 7400 ng/g. For the same compound, the “Brain/Plasma (ratios)” value in [4] (7 hr, individual animal) was 31.2 and 26.4. Besides, the concentration at 7 h in [4] (brain, 7 hr, individual animal, read-out: Brain Tissue Concentration) worked out at 7400 ng/g; in [4] (brain, 7 hr, mean n=3, read-out: Brain Tissue Concentration), 6960 ng/g; in [4] (plasma, 7 hr, individual animal, read-out: Plasma Concentration), 275 ng/mL; in data set [4] (plasma, 7 hr, mean n=3, read-out: Plasma Concentration), 246 ng/mL. Further, the Kp at 7 h in [4] (brain, 7 hr, individual animal) was 26.9; in data set [4] (brain, 7 hr, mean n=3), 28.3. Moreover, the concentration at 3 h in data set [4] (plasma, 3 hr, individual animal) came to 273 ng/mL; in data set [4] (plasma, 3 hr, mean n=3), 228 ng/mL. The “CYP induction based on enzyme activity” value in the data set on CYP3A4 is on record as “no CYP induction”. Moreover, the Kd (in general, the concentration at which binding is half-saturated) in data set [5] is under 1 nM. Also, the “hERG IC100” value at hERG is about 30 µM.

For the origin of these results see patent US20240293405A1, “(1H-PYRROLO[2,3-B]PYRIDIN-1-YL)PYRIMIDIN-2-YL-AMINO-PHENYL-ACRYLAMIDE INHIBITORS OF EGFR FOR USE IN THE TREATMENT OF BRAIN TUMORS” (Dana-Farber Cancer Institute, Inc., priority 2021, published 2024).
